The subject of this experiment is IL-1 alpha secretion by cocultures of fibroblasts and keratinocytes. The experiment can be described thus: IL-1 alpha assay: ELISA of IL-1α secreted by fibroblast/keratinocyte cocultures exposed to a surfactant irritant with botanical added. In kind it is cell-based, human. To be noted: hand dishwashing detergent; for Percent IL-1 α Reduction AVG: average of 1%, 0.1%, 0.01%. An excerpt:
IL-1 alpha is one cytokine often released near the beginning of the inflammation cascade, which ultimately leads to a human biological response resulting in visible and/or perceptual signs of irritation. Accordingly, by reducing the initial response to an irritant, such as a surfactant, the ultimate damaging reaction can be reduced, prevented, and/or eliminated.
The procedure for conducting IL-1 alpha assays is as follows: Cocultures of fibroblasts and keratinocytes, the primary cell types found in skin, are established using 100,000 fibroblasts and 200,000 keratinocytes per well. These types of cells are those found in the outer layers of the skin exposed to detergent during every day use. An irritant, for example the surfactant package used in a dish detergent (Example 1 below), is then applied to the coculture wells to initiate the production and secretion of pro-inflammatory cytokines by the cells. One such cytokine is human interleukin-1 alpha or IL-1α. In the body, this protein is a key mediator of the host response to infections and various inflammatory challenges. Once produced, IL-1α stimulates production of other pro-inflammatory cytokines and bioactive molecules. Together, these biological molecules send the message that something is wrong and the keratinocytes and fibroblasts need help. This is called the inflammatory response.
The amount of secreted IL-1α is directly related to the intensity of the inflammatory response. In vitro, the concentration of IL-1α secreted by the coculture cells in response to the irritant can be measured via a precise laboratory technique known as an Enzyme Linked Immuno-Sorbent Assay or ELISA. Thus, to test botanical materials for mildness, a lessening of IL-1α secretion, the mildness agents were added with the chemical irritant. When a reduction in IL-1α expression was observed, the mildness agents were successful. Theoretically, there are several mechanisms by which this could have been achieved at the cellular level. Without wishing to be bound to a particular theory or in any way limit the scope of the appended claims or their equivalents, it is presently believed that these mechanisms may include one or more of the following: the mildness agent could block the transcription of the DNA to RNA, translation of the RNA to protein, and/or release of the IL-1α from the cells. […] The mildness agent may also have stopped the cascade after the irritant works on the cell. Whatever the mechanism, the net result is the same. There is less IL-1α released by the cells which correlates to inhibition of events in the inflammatory cascade and ultimately, less inflammation.
These were prepared using a serial dilution technique: 1.0 g botanical was mixed well with 99.0 g dish detergent to give the 1.0% formulation; next, 10.0 g of the 1.0% solution was mixed well with 90.0 g of the dish detergent to give the 0.1% formulation; finally, 10.0 g of the 0.1% solution was mixed well with 90.0 g of the dish detergent to give the 0.01% formulation.

The results in this text go back to patent US20070224154A1, “Methods of reducing skin irritation” (ACCESS BUSINESS GROUP INTERNATIONAL, LLC, priority 2006, published 2007).

On to `CC(C)=CCC[C@](C)(O)[C@@H]1CC=C(C)CC1` [Alpha bisabolol, (−)-α-bisabolol], for which the “Percent IL-1 α Reduction AVG” value was 6.67%. The “Percent IL-1 α Reduction” value (botanical 0.01% by weight) turned out to be 19.00%. Also, where the note is “botanical 0.1% by weight”, the “Percent IL-1 α Reduction” value is on record as 2.00%. For the same molecule, the “Percent IL-1 α Reduction” value (botanical 1% by weight) is given as −1.00%.
With `O=C(O[C@@H]1Cc2c(O)cc(O)cc2O[C@@H]1c1cc(O)c(O)c(O)c1)c1cc(O)c(O)c(O)c1` [EGCG, epigallocatechin gallate], the “Percent IL-1 α Reduction AVG” value stood at 10.50%. Also, the “Percent IL-1 α Reduction” value (botanical 0.01% by weight) is 12.50%. Besides, the “Percent IL-1 α Reduction” value (botanical 0.1% by weight) is reported as 12.10%. For the same molecule, the “Percent IL-1 α Reduction” value (botanical 1% by weight) worked out at 6.90%.
The like results for `Oc1cc(O)c2c(c1)O[C@H](c1ccc(O)c(O)c1)[C@H](O)C2` [Epicatechin] were, in that order, 29.97%, 26.2%, 22.1% and 41.6%.
The like results for `CC(C)=CCCC(C)=CCCC(C)=CCO` [Farnesol] were, in that order, 19.10%, 14.50%, 15.50% and 27.30%.
Take `CCCCCCCCCCCCCCCCCCOC(=O)[C@@]1(C)CC[C@]2(C)CC[C@]3(C)C(=CC(=O)[C@@H]4[C@@]5(C)CC[C@H](O)C(C)(C)[C@@H]5CC[C@]43C)[C@@H]2C1` [NET-STG, stearyl glycyrrhetinate]: the “Percent IL-1 α Reduction AVG” value is listed as 13.10%. For the setting “botanical 0.01% by weight”, the “Percent IL-1 α Reduction” value stood at 14.70%. The “Percent IL-1 α Reduction” value (botanical 0.1% by weight) stood at 11.40%. In addition, the “Percent IL-1 α Reduction” value (botanical 1% by weight) was 13.20%.
`O=P(O)(O)O[C@H]1[C@H](OP(=O)(O)O)[C@@H](OP(=O)(O)O)[C@H](OP(=O)(O)O)[C@@H](OP(=O)(O)O)[C@H]1OP(=O)(O)O` [PHYTIC ACID EXTREME, phytic acid]: the “Percent IL-1 α Reduction AVG” value was 14.16%. The “Percent IL-1 α Reduction” value (botanical 0.01% by weight) turned out to be 15.01%. Besides, the “Percent IL-1 α Reduction” value (botanical 0.1% by weight) came to 12.56%. Where the note is “botanical 1% by weight”, the “Percent IL-1 α Reduction” value was determined as 14.91%.
The corresponding values for `O=C(/C=C/c1ccc(O)c(O)c1)O[C@H](Cc1ccc(O)c(O)c1)C(=O)O` [Rosmarinic Acid] are 28.80%, 34.5%, 31.8% and 20.1%.
The like results for `O=C1O[C@H]([C@@H](O)CO)C([O-])=C1OP(=O)([O-])[O-].O=C1O[C@H]([C@@H](O)CO)C([O-])=C1OP(=O)([O-])[O-].[Mg+2].[Mg+2].[Mg+2]` [VC-PMG, Magnesium Ascorbyl Phosphate] were, in that order, 21.93%, 29.70%, 23.80% and 12.30%.
The like results for `O=C1O[C@H]([C@@H](O)CO)C(O)=C1O` [Vitamin C] were, in that order, 7.33%, 10.30%, 8.50% and 3.20%.
Consider `CC(=O)Oc1c(C)c(C)c2c(c1C)CCC(C)(CCC[C@H](C)CCC[C@H](C)CCCC(C)C)O2` (stereo partly shown) [Vitamin E acetate], for which the “Percent IL-1 α Reduction AVG” value amounted to 26.73%. Moreover, the “Percent IL-1 α Reduction” value (botanical 0.01% by weight) was determined as 25.80%. Besides, under “botanical 0.1% by weight”, the “Percent IL-1 α Reduction” value amounted to 27.50%. Moreover, under “botanical 1% by weight”, the “Percent IL-1 α Reduction” value is listed as 26.90%.
The corresponding values for Catechin are 17.43%, 19.50%, 24.90% and 7.90%.
In the case of Ceramide, the “Percent IL-1 α Reduction AVG” value stood at 7.73%. For the same molecule, the “Percent IL-1 α Reduction” value (botanical 0.01% by weight) is listed as −0.60%. Moreover, the “Percent IL-1 α Reduction” value (botanical 0.1% by weight) stood at 14.70%. For the same molecule, the “Percent IL-1 α Reduction” value (botanical 1% by weight) came to 9.10%.
The corresponding values for Dimethiconol Panthenol [D.S.H. C N] are 19.31%, 22.25%, 16.43% and 19.24%.
Take “Dimethylsilanol Hyaluronate [AMINO DL-30]”: the “Percent IL-1 α Reduction AVG” value was 12.07%. The “Percent IL-1 α Reduction” value (botanical 0.01% by weight) was 21.81%. The “Percent IL-1 α Reduction” value (botanical 0.1% by weight) turned out to be 7.18%. For the setting “botanical 1% by weight”, the “Percent IL-1 α Reduction” value came out at 7.22%.
The like results for Vitamin B12 were, in that order, 9.17%, 17.70%, −3.20% and 13.00%.
Consider glutaurylamidoethyl indole [GLISTIN], for which the “Percent IL-1 α Reduction AVG” value was found to be 22.63%. In addition, under “botanical 0.01% by weight”, the “Percent IL-1 α Reduction” value is recorded as 18.50%. Moreover, under “botanical 0.1% by weight”, the “Percent IL-1 α Reduction” value amounted to 31.80%. The “Percent IL-1 α Reduction” value (botanical 1% by weight) worked out at 17.60%.
